Data reported in US20250101062A1, “ANTIMICROBIAL PEPTIDES” (Board of Regents of the University of Nebraska, priority 2023, published 2025).
Where two headings read alike, the source gives them in different places. Where no end group is shown, it is not given here.

Key:
[1] = tested on: S. aureus USA300 biofilms in murine wounds; assay: In vivo biofilm assay, murine wound model; design: species or system BALB/c mice; conditions: topical, 24 h
Protocol: Preparation of Inoculum. An overnight culture of S. aureus USA300 LAC was inoculated in fresh MHB and incubated at 37° C. for 3 hours. The suspension was centrifuged at 3000 g for 5 minutes, and the supernatant was discarded. The bacteria were resuspended in 1×PBS, and the OD600 was adjusted to 0.6 (˜3×10^7 CFU/mL).
Experimental Animals. An alternative murine wound model has been established which is slightly different from other studies (Su, et al. (2019) Mol. Pharmaceutics 16:2011-2020; Su, et al. (2023) J. Controlled Release 356:131-141). Female BALB/c mice (3-4 weeks, ˜20 g) were fed with standardized food (Teklad Laboratory diet for rodents) and water (Hydropac Alternative Watering System) ad libitum. Mice were kept in ventilated cages (IVCs) at a temperature of 20-24° C., a humidity of 50-60%, 60 air exchanges per hour, and a 12/12 hour light/dark cycle. All materials, including IVCs, lids, feeders, bottles, bedding, and water, were autoclaved before use. All animal manipulations were performed in a class II laminar flow biological safety cabinet. The study was approved by the Institutional Animal Care and Use Committee (IACUC) of UNMC (Protocol no. 22-015-08-FC).
In Vivo Biofilm Assay. Mice were anesthetized by intraperitoneal injection of ketamine-xylazine (100 mg/kg+10 mg/kg). […] Finally, the plates were incubated at 37° C. for 20 hours and the CFUs were counted. […]

P. aeruginosa E411-17 = assay: microbe, parasite or virus in culture; type: cell-based, Pseudomonas aeruginosa; conditions: for MIC: read-out: Antimicrobial activity (MIC)
How it was run: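 Broth microdilution with twofold peptide dilutions, using exponential-phase bacteria at about 10^5 CFU/mL in MHB, incubated overnight at 37 °C and read at OD600. MIC, reported as a range, is the peptide concentration with no growth. Some tests used diluted MHB/TSB/LB, adjusted pH, or added NaCl or human serum.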

Row | Molecule | reduction of bacterial burden ([1]; 10 mg/kg per wound) [logs] | MIC (P. aeruginosa E411-17; Human serum 5%) [µM] | MIC (P. aeruginosa E411-17; Human serum 10%) [µM] | MIC (P. aeruginosa E411-17; Pseudomonas aeruginosa, E41117, pH 6.21) [µM] | MIC (P. aeruginosa E411-17; Pseudomonas aeruginosa, E41117, pH 7.22) [µM] | MIC (P. aeruginosa E411-17; Pseudomonas aeruginosa, E41117, pH 8.13) [µM] | MIC (P. aeruginosa E411-17; Pseudomonas aeruginosa, E41117, NaCl (150 mM)) [µM] | bacterial CFU decrease ([1]; 4.4 mg/kg per wound) [log] | Activity (MIC) P. aeruginosa (P. aeruginosa E411-17; E411-17) [µM]
1 | CCCCCCCCCC(=O)N[C@@H](Cc1c[nH]c2ccccc12)C(=O)N[C@H](CC(N)=O)C(=O)N[C@@H](CC(=O)O)C(=O)N[C@@H]1C(=O)NCC(=O)N[C@@H](CCCN)C(=O)N[C@@H](CC(=O)O)C(=O)N[C@H](C)C(=O)N[C@@H](CC(=O)O)C(=O)NCC(=O)N[C@H](CO)C(=O)N[C@@H]([C@H](C)CC(=O)O)C(=O)N[C@@H](CC(=O)c2ccccc2N)C(=O)O[C@@H]1C [Daptomycin] | ~3 | >8 | >8 | > 8 | > 8 | > 8 | > 8 | – | –
2 | RRWWRWWR-NH2 [W543] | – | – | – | – | – | – | – | 2 | 8
